Results: patent US20240124427A1, “HYDROXYHETEROCYCLOALKANE-CARBAMOYL DERIVATIVES” (Idorsia Pharmaceuticals Ltd, priority 2021, published 2024)

The compounds below were run against human Gal-3 (hGal-3) (Homo sapiens (Human), UniProt P17931) (assay: Competitive binding assay: biotinylated hGal-3 binding to microplate-adsorbed asialofetuin (ASF)). Settings: Activity on hGal-3; mean values of several measurements; mixture of diastereomers measured where not separated.
Experimental: The inhibitory activity of compounds is determined in competitive binding assays. This spectrophotometric assay measures the binding of biotinylated human Gal-3 (hGal-3) or human Gal-1 (hGal-1), respectively, to a microplate-adsorbed glycoprotein, asialofetuin (ASF) (Proc Natl Acad Sci USA. 2013 Mar 26;110(13):5052-7.). Alternatively, and preferably, a human Gal-1 version in which all six cysteines are substituted by serines may be used.
Briefly, compounds are serially diluted in DMSO (working dilutions).
Plates are incubated for 3 hours at 4° C., then washed with cold assay buffer (3×50 uL), incubated for 1 hour with 25 μL/well of a streptavidin-peroxidase solution (diluted in assay buffer to 80 ng/mL) at 4° C., followed by further washing steps with assay buffer (3×50 uL). Finally, 25 μL/well of ABTS substrate is added.
The calculated IC50 values may fluctuate depending on the daily assay performance. Fluctuations of this kind are known to those skilled in the art. IC50 values from several measurements are given as mean values.

Chain of human Gal-3 (hGal-3) (P17931 whole entry): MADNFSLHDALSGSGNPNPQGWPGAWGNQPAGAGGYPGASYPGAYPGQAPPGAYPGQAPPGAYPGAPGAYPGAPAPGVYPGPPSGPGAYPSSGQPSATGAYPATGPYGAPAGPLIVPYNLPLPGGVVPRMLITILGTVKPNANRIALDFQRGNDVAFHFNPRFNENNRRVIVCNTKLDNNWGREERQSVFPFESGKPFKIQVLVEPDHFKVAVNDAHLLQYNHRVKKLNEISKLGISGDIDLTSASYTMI

Compound | IC50 [nM]
CO[C@@H]1[C@@H](n2cc(-c3cc(F)c(C)c(F)c3)nn2)[C@@H](O)[C@@H](CO)O[C@H]1C(=O)N(c1cc(Br)cc(C#N)c1)[C@H]1COC[C@@H]1O [Example 17, (2R,3R,4S,5R,6R)-N-(3-bromo-5-cyanophenyl)-4-(4-(3,5-difluoro-4-methylphenyl)-1H-1,2,3-triazol-1-yl)-5-hydroxy-6-(hydroxymethyl)-N-((3S,4R)-4-hydroxytetrahydrofuran-3-yl)-3-methoxytetrahydro-2H-pyran-2-carboxamide] | 66
CO[C@@H]1[C@@H](n2cc(-c3ccc(C)c(F)c3F)nn2)[C@@H](O)[C@@H](CO)O[C@H]1C(=O)N(c1cc(Cl)cc(Cl)c1)[C@H]1COC[C@@H]1O [Example 19, (2R,3R,4S,5R,6R)-N-(3,5-dichlorophenyl)-4-(4-(2,3-difluoro-4-methylphenyl)-1H-1,2,3-triazol-1-yl)-5-hydroxy-6-(hydroxymethyl)-N-((3S,4R)-4-hydroxytetrahydrofuran-3-yl)-3-methoxytetrahydro-2H-pyran-2-carboxamide] | 40
CO[C@@H]1[C@@H](n2cc(-c3ccc(C)c(F)c3F)nn2)[C@@H](O)[C@@H](CO)O[C@H]1C(=O)N(c1cc(Br)cc(C#N)c1)[C@H]1COC[C@@H]1O [Example 20, (2R,3R,4S,5R,6R)-N-(3-bromo-5-cyanophenyl)-4-(4-(2,3-difluoro-4-methylphenyl)-1H-1,2,3-triazol-1-yl)-5-hydroxy-6-(hydroxymethyl)-N-((3S,4R)-4-hydroxytetrahydrofuran-3-yl)-3-methoxytetrahydro-2H-pyran-2-carboxamide] | 31
CO[C@@H]1[C@@H](n2cc(-c3cc(F)c(Cl)c(F)c3)nn2)[C@@H](O)[C@@H](CO)O[C@H]1C(=O)N(c1cc(Cl)cc(Cl)c1)[C@H]1COC[C@@H]1O [Example 22, (2R,3R,4S,5R,6R)-4-(4-(4-chloro-3,5-difluorophenyl)-1H-1,2,3-triazol-1-yl)-N-(3,5-dichlorophenyl)-5-hydroxy-6-(hydroxymethyl)-N-((3S,4R)-4-hydroxytetrahydrofuran-3-yl)-3-methoxytetrahydro-2H-pyran-2-carboxamide] | 50
CO[C@@H]1[C@@H](n2cc(-c3cc(F)c(F)c(F)c3)nn2)[C@@H](O)[C@@H](CO)O[C@H]1C(=O)N(c1cccc(Cl)c1)[C@@H]1COC[C@H]1O [Example 30, (2R,3R,4S,5R,6R)-N-(3-chlorophenyl)-5-hydroxy-6-(hydroxymethyl)-N-((3R,4S)-4-hydroxytetrahydrofuran-3-yl)-3-methoxy-4-(4-(3,4,5-trifluorophenyl)-1H-1,2,3-triazol-1-yl)tetrahydro-2H-pyran-2-carboxamide] | 235
CO[C@@H]1[C@@H](n2cc(-c3cc(F)c(F)c(F)c3)nn2)[C@@H](O)[C@@H](CO)O[C@H]1C(=O)N(c1cccc(Br)c1)[C@@H]1COC[C@H]1O [Example 31, (2R,3R,4S,5R,6R)-N-(3-bromophenyl)-5-hydroxy-6-(hydroxymethyl)-N-((3R,4S)-4-hydroxytetrahydrofuran-3-yl)-3-methoxy-4-(4-(3,4,5-trifluorophenyl)-1H-1,2,3-triazol-1-yl)tetrahydro-2H-pyran-2-carboxamide] | 103
CO[C@@H]1[C@@H](n2cc(-c3cc(F)c(F)c(F)c3)nn2)[C@@H](O)[C@@H](CO)O[C@H]1C(=O)N(c1cccc(I)c1)[C@@H]1COC[C@H]1O [Example 32, (2R,3R,4S,5R,6R)-5-hydroxy-6-(hydroxymethyl)-N-((3R,4S)-4-hydroxytetrahydrofuran-3-yl)-N-(3-iodophenyl)-3-methoxy-4-(4-(3,4,5-trifluorophenyl)-1H-1,2,3-triazol-1-yl)tetrahydro-2H-pyran-2-carboxamide] | 130
CO[C@@H]1[C@@H](n2cc(-c3cc(F)c(F)c(F)c3)nn2)[C@@H](O)[C@@H](CO)O[C@H]1C(=O)N(c1cc(Cl)cc(Cl)c1)[C@@H]1COC[C@H]1O [Example 33, (2R,3R,4S,5R,6R)-N-(3,5-dichlorophenyl)-5-hydroxy-6-(hydroxymethyl)-N-((3R,4S)-4-hydroxytetrahydrofuran-3-yl)-3-methoxy-4-(4-(3,4,5-trifluorophenyl)-1H-1,2,3-triazol-1-yl)tetrahydro-2H-pyran-2-carboxamide] | 104
CO[C@@H]1[C@@H](n2cc(-c3cc(F)c(F)c(F)c3)nn2)[C@@H](O)[C@@H](CO)O[C@H]1C(=O)N(c1cc(Cl)cc(C#N)c1)[C@@H]1COC[C@H]1O [Example 34, (2R,3R,4S,5R,6R)-N-(3-chloro-5-cyanophenyl)-5-hydroxy-6-(hydroxymethyl)-N-((3R,4S)-4-hydroxytetrahydrofuran-3-yl)-3-methoxy-4-(4-(3,4,5-trifluorophenyl)-1H-1,2,3-triazol-1-yl)tetrahydro-2H-pyran-2-carboxamide] | 102
CO[C@@H]1[C@@H](n2cc(-c3cc(F)c(F)c(F)c3)nn2)[C@@H](O)[C@@H](CO)O[C@H]1C(=O)N(c1cc(Br)cc(Br)c1)[C@@H]1COC[C@H]1O [Example 35, (2R,3R,4S,5R,6R)-N-(3,5-dibromophenyl)-5-hydroxy-6-(hydroxymethyl)-N-((3R,4S)-4-hydroxytetrahydrofuran-3-yl)-3-methoxy-4-(4-(3,4,5-trifluorophenyl)-1H-1,2,3-triazol-1-yl)tetrahydro-2H-pyran-2-carboxamide] | 84

The next lines start with the values.

IC50 [nM] | Compound
69 | CO[C@@H]1[C@@H](n2cc(-c3cc(F)c(C)c(F)c3)nn2)[C@@H](O)[C@@H](CO)O[C@H]1C(=O)N(c1cc(C)cc(Br)c1)[C@H]1COC[C@@H]1O [Example 18, (2R,3R,4S,5R,6R)-N-(3-bromo-5-methylphenyl)-4-(4-(3,5-difluoro-4-methylphenyl)-1H-1,2,3-triazol-1-yl)-5-hydroxy-6-(hydroxymethyl)-N-((3S,4R)-4-hydroxytetrahydrofuran-3-yl)-3-methoxytetrahydro-2H-pyran-2-carboxamide]
35 | CO[C@@H]1[C@@H](n2cc(-c3ccc(C)c(F)c3F)nn2)[C@@H](O)[C@@H](CO)O[C@H]1C(=O)N(c1cc(C)cc(Br)c1)[C@H]1COC[C@@H]1O [Example 21, (2R,3R,4S,5R,6R)-N-(3-bromo-5-methylphenyl)-4-(4-(2,3-difluoro-4-methylphenyl)-1H-1,2,3-triazol-1-yl)-5-hydroxy-6-(hydroxymethyl)-N-((3S,4R)-4-hydroxytetrahydrofuran-3-yl)-3-methoxytetrahydro-2H-pyran-2-carboxamide]
55 | CO[C@@H]1[C@@H](n2cc(-c3cc(F)c(Cl)c(F)c3)nn2)[C@@H](O)[C@@H](CO)O[C@H]1C(=O)N(c1cc(Br)cc(Br)c1)[C@H]1COC[C@@H]1O [Example 23, (2R,3R,4S,5R,6R)-4-(4-(4-chloro-3,5-difluorophenyl)-1H-1,2,3-triazol-1-yl)-N-(3,5-dibromophenyl)-5-hydroxy-6-(hydroxymethyl)-N-((3S,4R)-4-hydroxytetrahydrofuran-3-yl)-3-methoxytetrahydro-2H-pyran-2-carboxamide]
31 | CO[C@@H]1[C@@H](n2cc(-c3cc(F)c(Cl)c(F)c3)nn2)[C@@H](O)[C@@H](CO)O[C@H]1C(=O)N(c1cc(C)cc(Br)c1)[C@H]1COC[C@@H]1O [Example 25, (2R,3R,4S,5R,6R)-N-(3-bromo-5-methylphenyl)-4-(4-(4-chloro-3,5-difluorophenyl)-1H-1,2,3-triazol-1-yl)-5-hydroxy-6-(hydroxymethyl)-N-((3S,4R)-4-hydroxytetrahydrofuran-3-yl)-3-methoxytetrahydro-2H-pyran-2-carboxamide]
162 | CO[C@@H]1[C@@H](n2cc(-c3ccc(Cl)c(Cl)c3)nn2)[C@@H](O)[C@@H](CO)O[C@H]1C(=O)N(c1cc(Cl)cc(Cl)c1)[C@H]1COC[C@@H]1O [Example 26, (2R,3R,4S,5R,6R)-N-(3,5-dichlorophenyl)-4-(4-(3,4-dichlorophenyl)-1H-1,2,3-triazol-1-yl)-5-hydroxy-6-(hydroxymethyl)-N-((3S,4R)-4-hydroxytetrahydrofuran-3-yl)-3-methoxytetrahydro-2H-pyran-2-carboxamide]
89 | CO[C@@H]1[C@@H](n2cc(-c3ccc(Cl)c(Cl)c3)nn2)[C@@H](O)[C@@H](CO)O[C@H]1C(=O)N(c1cc(Br)cc(Br)c1)[C@H]1COC[C@@H]1O [Example 27, (2R,3R,4S,5R,6R)-N-(3,5-dibromophenyl)-4-(4-(3,4-dichlorophenyl)-1H-1,2,3-triazol-1-yl)-5-hydroxy-6-(hydroxymethyl)-N-((3S,4R)-4-hydroxytetrahydrofuran-3-yl)-3-methoxytetrahydro-2H-pyran-2-carboxamide]
115 | CO[C@@H]1[C@@H](n2cc(-c3ccc(Cl)c(Cl)c3)nn2)[C@@H](O)[C@@H](CO)O[C@H]1C(=O)N(c1cc(Br)cc(C#N)c1)[C@H]1COC[C@@H]1O [Example 28, (2R,3R,4S,5R,6R)-N-(3-bromo-5-cyanophenyl)-4-(4-(3,4-dichlorophenyl)-1H-1,2,3-triazol-1-yl)-5-hydroxy-6-(hydroxymethyl)-N-((3S,4R)-4-hydroxytetrahydrofuran-3-yl)-3-methoxytetrahydro-2H-pyran-2-carboxamide]
153 | CO[C@@H]1[C@@H](n2cc(-c3ccc(Cl)c(Cl)c3)nn2)[C@@H](O)[C@@H](CO)O[C@H]1C(=O)N(c1cc(C)cc(Br)c1)[C@H]1COC[C@@H]1O [Example 29, (2R,3R,4S,5R,6R)-N-(3-bromo-5-methylphenyl)-4-(4-(3,4-dichlorophenyl)-1H-1,2,3-triazol-1-yl)-5-hydroxy-6-(hydroxymethyl)-N-((3S,4R)-4-hydroxytetrahydrofuran-3-yl)-3-methoxytetrahydro-2H-pyran-2-carboxamide]
